This is an account of results in patent publication US7842808B2, “Anti-migraine spirocycles” (Bristol-Myers Squibb Company, priority 2002, dated 2010).

Where two headings read alike, the source gives them in different places.

Test [1] concerns the target T1, CGRP receptor (SK-N-MC cell membranes) (Homo sapiens, UniProt O60894+Q16602).
T1 construct: endogenous in cells; host or cells: SK-N-MC cells (membrane homogenate)
As to the kind of experiment: CGRP Binding Assay ([125I]-CGRP radioligand binding, SK-N-MC homogenate). Particulars: displacement of [125I]-CGRP, SK-N-MC homogenate; read-out: CGRP binding IC50. In general terms: In a radioligand displacement assay an active substance lowers the binding of a labelled ligand.

Test [2] addresses T2, human CGRP receptor (SK-N-MC cells) (Homo sapiens, UniProt O60894+Q16602).
T2 construct: SK-N-MC cells that endogenously express the human CGRP receptor; endogenous in cells; host or cells: SK-N-MC cells
Put plainly: Cyclic AMP Assay, functional antagonism of CGRP-induced cyclic AMP formation. It is filed as cell-based. On the procedure: Functional Antagonism. Antagonism of the compounds of invention was determined by measuring the formation of cyclic AMP (adenosine 3′5′-cyclic monophosphate) in SK-N-MC cells that endogenously express the human CGRP receptor. […] For cyclic AMP measurements SK-N-MC cells were incubated with 0.3 nM CGRP alone or in the presence of various concentrations of the compounds of invention for 30 min at room temperature. […] Cyclic AMP was extracted using the lysis reagent and its concentration was determined by radioimmunoassay using RPA559 cAMP SPA Direct Screening Assay Kit (Amersham Pharmacia Biotech). IC50 values were calculated using Excel fit.

The mark [3] stands for this setting: SK-N-MC cells, 0.3 nM CGRP, read-out: cAMP Function IC50.

T2 sequence (Q16602 23-461): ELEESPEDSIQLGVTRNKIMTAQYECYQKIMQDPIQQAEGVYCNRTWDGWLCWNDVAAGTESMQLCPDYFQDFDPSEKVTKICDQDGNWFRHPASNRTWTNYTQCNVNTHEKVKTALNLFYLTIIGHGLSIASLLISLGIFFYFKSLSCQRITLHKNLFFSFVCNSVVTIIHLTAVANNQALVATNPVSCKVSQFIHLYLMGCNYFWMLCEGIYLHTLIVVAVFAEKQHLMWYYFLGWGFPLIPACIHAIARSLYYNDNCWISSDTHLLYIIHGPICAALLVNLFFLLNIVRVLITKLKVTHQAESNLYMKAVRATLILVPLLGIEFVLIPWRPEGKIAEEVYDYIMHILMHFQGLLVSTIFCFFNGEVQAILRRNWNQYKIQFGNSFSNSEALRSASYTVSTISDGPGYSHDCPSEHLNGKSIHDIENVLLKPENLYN
T2 sequence (O60894 27-148): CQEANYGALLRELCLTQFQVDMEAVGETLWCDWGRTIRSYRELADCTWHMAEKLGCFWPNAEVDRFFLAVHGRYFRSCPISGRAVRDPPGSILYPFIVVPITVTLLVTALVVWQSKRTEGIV
T1 sequence (Q16602 23-461): as the sequence (Q16602 23-461) above
T1 sequence (O60894 27-148): as the sequence (O60894 27-148) above

Regarding `Cc1cc(CC(NC(=O)N2CCC3(CC2)N=C(c2ccccc2)NC3=O)C(=O)N(C)C)cc2cn[nH]c12` (racemic) [Example 36, (±)-4-Oxo-2-phenyl-1,3,8-triaza-spiro[4,5]dec-1-ene-8-carboxylic acid[1-dimethylcarbamoyl-2-(7-methyl-1H-indazol-5-yl)-ethyl]amide], the half-maximal inhibitory concentration (IC50) in test [1] and in test [2] (setting [3]) was 10 to 100 nM throughout.

For `CC1(C)CN(CC(NC(=O)N2CCC(N3Cc4ccccc4NC3=O)CC2)C(=O)N2CCC(N3CCCCC3)CC2)Cc2cn[nH]c21` (racemic) [Example 56, (±)-4-(2-Oxo-1,4-dihydro-2H-quinazolin-3-yl)-piperidine-1-carboxylic acid[2-[1,4′]bipiperidinyl-1′-yl-1-(7,7-dimethyl-1,4,6,7-tetrahydro-pyrazolo[4,3-c]pyridin-5-ylmethyl)-2-oxo-ethyl]-amide], the concentration for half-maximal inhibition (IC50) in test [1] and in test [2] (setting [3]) was under 10 nM each time.

Consider `Cc1cc(CC(CC(=O)N2CCC(N3Cc4ccccc4NC3=O)CC2)C(=O)N2CC(C)OC(C)C2)cc2cn[nH]c12` (racemic) [Example 73, (±)-1-(2,6-Dimethyl-morpholin-4-yl)-2-(7-methyl-1H-indazol-5-ylmethyl)-4-[4-(2-oxo-1,4-dihydro-2H-quinazolin-3-yl)-piperidin-1-yl]-butane-1,4-dione], for which the concentration for half-maximal inhibition (IC50) in test [1] and in test [2] (setting [3]) was 10 to 100 nM each time.

On to `Cc1cc(CC(CC(=O)N2CCC(N3Cc4ccccc4NC3=O)CC2)C(=O)N2CCOCC2)cc2cn[nH]c12` (racemic) [Example 75, (±)-2-(7-Methyl-1H-indazol-5-ylmethyl)-1-morpholin-4-yl-4-[4-(2-oxo-1,4-dihydro-2H-quinazolin-3-yl)-piperidin-1-yl]-butane-1,4-dione], for which the results for the IC50 in test [1] and in test [2] (setting [3]) were under 10 nM and 10 to 100 nM, respectively.

`Cc1cc(CC(CC(=O)N2CCC3(CC2)OC(=O)Nc2ccccc23)C(=O)N2CCCCC2)cc2cn[nH]c12` (racemic) [Example 77, (±)-2-(7-Methyl-1H-indazol-5-ylmethyl)-1-(piperidin-1-yl)-4-[1′,2′-dihydro-2′-oxospiro-[4H-3′,1-benzoxazine-4,4′-piperidinyl]-butane-1,4-dione]: the IC50 in test [1] and in test [2] (setting [3]) was 10 to 100 nM in each case.

Take `Cc1cc(CC(CC(=O)N2CCC(N3Cc4ccccc4NC3=O)CC2)C(=O)N2CCCCC2)cc2cn[nH]c12` (racemic) [Example 78, (±)-2-(7-Methyl-1H-indazol-5-ylmethyl)-4-[4-(2-oxo-1,4-dihydro-2H-quinazolin-3-yl)-piperidin-1-yl]-1-piperidin-1-yl-butane-1,4-dione]: the IC50 in test [1] and in test [2] (setting [3]) was under 10 nM each time.

Regarding `O=C1Nc2ccccc2C2(CCN(C(=O)CC(Cc3ccc4[nH]ncc4c3)C(=O)N3CCC(N4CCCCC4)CC3)CC2)O1` (racemic) [Example 79, (±)-1-[1,4′]Bipiperidinyl-1′-yl-2-(1H-indazol-5-ylmethyl)-4-[1′,2′-dihydro-2′-oxospiro-[4H-3′,1-benzoxazine-4,4′-piperidinyl]-butane-1,4-dione], the results for the IC50 in test [1] and in test [2] (setting [3]) were 10 to 100 nM and 100 to 1000 nM, respectively.

Regarding `O=C(CC(Cc1ccc2[nH]ncc2c1)C(=O)N1CCC2(CC1)OCCO2)N1CCC(N2Cc3ccccc3NC2=O)CC1` (racemic) [Example 81, (±)-1-(1,4-Dioxa-8-aza-spiro[4.5]dec-8-yl)-2-(1H-indazol-5-ylmethyl)-4-[4-(2-oxo-1,4-dihydro-2H-quinazolin-3-yl)-piperidin-1-yl]-butane-1,4-dione], the IC50 lay in the range of 10 to 100 nM in test [1] and 100 to 1000 nM in test [2].

With `CN(C)C(=O)C(CC(=O)N1CCC(N2Cc3ccccc3NC2=O)CC1)Cc1ccc2[nH]ncc2c1` (racemic) [Example 82, (±)-2-(1H-Indazol-5-ylmethyl)-N,N-dimethyl-4-oxo-4-[4-(2-oxo-1,4-dihydro-2H-quinazolin-3-yl)-piperidin-1-yl]-butyramide], the IC50 in test [1] is 10 to 100 nM; in test [2] (setting [3]), 100 to 1000 nM.

`CC(C)(C)OC(=O)n1ncc2cc(CC(CC(=O)N3CCC(N4Cc5ccccc5NC4=O)CC3)C(=O)N3CCC(N4CCCCC4)CC3)ccc21` (racemic) [Example 83, (±)-5-{2-([1,4′]Bipiperidinyl-1′-carbonyl)-4-oxo-4-[4-(2-oxo-1,4-dihydro-2H-quinazolin-3-yl)-piperidin-1-yl]-butyl}-indazole-1-carboxylic acid tert-butyl ester]: the values for the IC50 in test [1] and in test [2] (setting [3]) were 10 to 100 nM and 100 to 1000 nM, respectively.

With `C#CCNC(=O)C(CC(=O)N1CCC(N2Cc3ccccc3NC2=O)CC1)Cc1cc(C)c2[nH]ncc2c1` (racemic) [Example 84, (±)-2-(7-Methyl-1H-indazol-5-ylmethyl)-4-oxo-4-[4-(2-oxo-1,4-dihydro-2H-quinazolin-3-yl)-piperidin-1-yl]-N-prop-2-ynyl-butyramide], the half-maximal inhibitory concentration (IC50) in test [1] and in test [2] (setting [3]) was 10 to 100 nM in each case.

As for `O=C(NC(Cc1ccc2[nH]ncc2c1)C(=O)N1CCC(N2Cc3ccccc3NC2=O)CC1)N1CCC(N2Cc3ccccc3NC2=O)CC1` (centres unmarked) [Example 37, 4-(2-Oxo-1,4-dihydro-2H-quinazolin-3-yl)-piperidine-1-carboxylic acid{1-(1H-indazol-5-ylmethyl)-2-oxo-2-[4-(2-oxo-1,4-dihydro-2H-quinazolin-3-yl)-piperidin-1-yl]-ethyl}-amide], the figures for the half-maximal inhibitory concentration (IC50) in test [1] and in test [2] (setting [3]) were under 10 nM and 10 to 100 nM, respectively.

With `O=C(NC(Cc1ccc2[nH]ncc2c1)C(=O)N1CCN(C(=O)OCc2ccccc2)CC1)N1CCC(N2Cc3ccccc3NC2=O)CC1` (centres unmarked) [Example 38, 4-(3-(1H-Indazol-5-yl)-2-{[4-(2-oxo-1,4-dihydro-2H-quinazolin-3-yl)-piperidine-1-carbonyl]-amino}-propionyl)-piperazine-1-carboxylic acid benzyl ester], the half-inhibitory concentration (IC50) in test [1] and in test [2] (setting [3]) was 10 to 100 nM throughout.

As for `O=C(NC(Cc1ccc2[nH]ncc2c1)C(=O)N1CCNCC1)N1CCC(N2Cc3ccccc3NC2=O)CC1` (centres unmarked) [Example 39, 4-(2-Oxo-1,4-dihydro-2H-quinazolin-3-yl)-piperidine-1-carboxylic acid[1-(1H-indazol-5-ylmethyl)-2-oxo-2-piperazin-1-yl-ethyl]-amide], the IC50 in test [1] and in test [2] (setting [3]) was 100 to 1000 nM throughout.

Turning to `CCC(C)CN1CCN(C(=O)C(Cc2ccc3[nH]ncc3c2)NC(=O)N2CCC(N3Cc4ccccc4NC3=O)CC2)CC1` (centres unmarked) [Example 40a, 4-(2-Oxo-1,4-dihydro-2H-quinazolin-3-yl)-piperidine-1-carboxylic acid{1-(1H-indazol-5-ylmethyl)-2-[4-(2-methyl-butyl)-piperazin-1-yl]-2-oxo-ethyl}-amide], the 50% inhibitory concentration (IC50) in test [1] and in test [2] (setting [3]) was under 10 nM throughout.

On to `Cc1nc2cc(C[C@@H](NC(=O)N3CCC(N4Cc5ccccc5NC4=O)CC3)C(=O)N3CCC(N4CCCCC4)CC3)ccc2[nH]1` [Example 46, (R)-4-(2-Oxo-1,4-dihydro-2H-quinazolin-3-yl)-piperidine-1-carboxylic acid[2-[1,4′]bipiperidinyl-1′-yl-1-(2-methyl-1H-benzoimidazol-5-ylmethyl)-2-oxo-ethyl]-amide], for which the IC50 in test [1] and in test [2] (setting [3]) was 10 to 100 nM in each case.

Usually IC50 stands for the concentration needed to halve the response being measured.
